In patent EP2072513A1, “A cyano piperidinyl-phenil-oxazolidinone and use thereof” (Ferrer Internacional, S.A., priority 2007, dated 2009):
In brackets after ≈: the same amount, converted by molar mass. Like-named read-outs stand apart in the source and are kept apart here.

Key:
[1] = system: S. aureus ATCC 25923 MS 319; assay: MIC, standard micro dilution method (NCCLS M7-A5); assay type: cell-based; conditions: Staphylococcus aureus, ATCC25923
[2] = system: S. aureus ATCC 43300 MR 214; assay: MIC, standard micro dilution method (NCCLS M7-A5); assay type: cell-based; conditions: Staphylococcus aureus, ATCC43300
[3] = system: S. aureus clinical strain cfr methylase 432; assay: MIC, standard micro dilution method (NCCLS M7-A5); assay type: cell-based; conditions: Staphylococcus aureus; S. aureus clinical strain cfr methylase 432 (linezolid-resistant)
[4] = system: S. epidermidis ATCC 12228 MR 11; assay: MIC, standard micro dilution method (NCCLS M7-A5); assay type: cell-based; conditions: Staphylococcus epidermidis, ATCC12228
[5] = system: S. pneumoniae ATCC 49619 PR 215; assay: MIC, standard micro dilution method (NCCLS M7-A5); assay type: cell-based; conditions: Streptococcus pneumoniae, ATCC49619
[6] = system: E. faecalis ATCC 29212 53; assay: MIC, standard micro dilution method (NCCLS M7-A5); assay type: cell-based; conditions: Enterococcus faecalis, ATCC29212
E. faecium ATCC 10541 13 = assay: MIC, standard micro dilution method (NCCLS M7-A5); assay type: cell-based; conditions: Enterococcus faecium, ATCC10541
[7] = system: B. fragilis ATCC 25285 A12; assay: MIC, standard micro dilution method (NCCLS M7-A5); assay type: cell-based; conditions: Bacteroides fragilis, ATCC25285; B. fragilis ATCC 25285 A12, anaerobic, Brucella Blood medium
[8] = system: Moraxella catarrhalis HCl-78 259/339; assay: MIC, standard micro dilution method (NCCLS M7-A5); assay type: cell-based; conditions: HCL78259/339
human MAO-A = target: T1, human MAO-A (Homo sapiens, UniProt P21397); assay: In vitro MAO-A enzymatic activity (kynuramine substrate, fluorescence); assay type: biochemical; conditions: membranes from SF9 cells, kynuramine 30 µM, 37° 40 min
T1 construct: purchased Gentest, BD, USA; host or cells: SF9 insect cells (membranes)
T1 sequence (P21397 1-527): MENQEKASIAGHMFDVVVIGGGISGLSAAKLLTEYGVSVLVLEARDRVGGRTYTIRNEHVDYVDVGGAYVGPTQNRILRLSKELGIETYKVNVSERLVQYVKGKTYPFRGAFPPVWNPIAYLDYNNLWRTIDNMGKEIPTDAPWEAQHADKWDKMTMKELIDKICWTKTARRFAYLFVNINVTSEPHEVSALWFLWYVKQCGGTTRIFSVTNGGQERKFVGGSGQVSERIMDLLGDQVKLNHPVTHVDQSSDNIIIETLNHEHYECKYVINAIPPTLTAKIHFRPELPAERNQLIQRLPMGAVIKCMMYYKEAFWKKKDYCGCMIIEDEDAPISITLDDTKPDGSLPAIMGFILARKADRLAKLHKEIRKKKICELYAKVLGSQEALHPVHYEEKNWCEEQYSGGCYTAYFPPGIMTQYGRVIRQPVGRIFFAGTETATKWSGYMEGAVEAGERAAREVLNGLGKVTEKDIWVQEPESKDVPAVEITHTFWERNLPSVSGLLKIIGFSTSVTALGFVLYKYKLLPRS
Protocol: (§1) MAO-A and MAO-B enzymatic activities were measured using membranes obtained from SF9 cells expressing either human MAO-A or human MAO-B (Gentest, BD, USA). Assays were done in blank 96-well micro titter plates using kynuramine as substrate and measuring the formation of 4-hydroxyquinoline by fluorescence at 340 nm/465 nm. Briefly, membranes with MAO-A (0.006 mg/mL protein) and MAO-B (0.015 mg/mL protein) were incubated with kynuramine, 30 µM, at 37° for 40 min in the presence of the compound in a final volume of 200 µL. Reactions were stopped by adding NaOH 2N and the reaction product, 4-hydroxyquinoline, was determined by fluorometry using a Tecan Ultra reader.

human MAO-B = target: T2, human MAO-B (Homo sapiens, UniProt P27338); assay: In vitro MAO-B enzymatic activity (kynuramine substrate, fluorescence); assay type: biochemical; conditions: membranes from SF9 cells, kynuramine 30 µM, 37° 40 min
T2 construct: purchased Gentest, BD, USA; host or cells: SF9 insect cells (membranes)
T2 sequence (P27338 1-520): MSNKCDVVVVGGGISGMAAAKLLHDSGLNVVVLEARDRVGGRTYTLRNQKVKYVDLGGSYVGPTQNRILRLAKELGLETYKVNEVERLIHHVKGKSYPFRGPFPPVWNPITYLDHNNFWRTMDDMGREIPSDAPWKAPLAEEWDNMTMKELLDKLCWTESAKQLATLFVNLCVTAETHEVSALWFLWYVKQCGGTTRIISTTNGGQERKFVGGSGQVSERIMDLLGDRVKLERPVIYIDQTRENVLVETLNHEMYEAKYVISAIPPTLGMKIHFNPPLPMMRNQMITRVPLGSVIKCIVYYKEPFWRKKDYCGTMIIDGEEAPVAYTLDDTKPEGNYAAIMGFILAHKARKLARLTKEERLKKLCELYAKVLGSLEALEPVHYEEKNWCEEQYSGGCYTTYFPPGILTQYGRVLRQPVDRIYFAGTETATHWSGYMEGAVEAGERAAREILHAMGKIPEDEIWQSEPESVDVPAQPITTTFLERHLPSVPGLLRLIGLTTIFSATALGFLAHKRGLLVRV
Protocol: as §1

[9] = system: Moxarella, Pasteurella and Bacteroides spp.; conditions: cited from earlier work
[10] = Equilibrium solubility of polymorphic forms in solvent systems; assay type: physicochemical
Protocol: Table 1: Equilibrium solubilities of polymorphic form B. Solubility studies were also performed for polymorphic form A. In Table 2 appear the data obtained. Table 2: Equilibrium solubilities of polymorphic form A.

[11] = Suspension equilibration experiments (relative stability of polymorphic forms); assay type: physicochemical; conditions: at room temperature (17-30 °C)
Text: However, a mixture of polymorphic form A and B in water slowly converted into pure polymorphic form B as well. Similarly, a suspension containing a mixture of polymorphic forms B and C in ethanol converted into polymorphic form B after some time.

SMILES | MIC [1] [µg/mL] | MIC [2] [µg/mL] | MIC [3] [µg/mL] | MIC [4] [µg/mL] | MIC [5] [µg/mL] | MIC [6] [µg/mL] | MIC (E. faecium ATCC 10541 13) [µg/mL] | MIC [7] [µg/mL] | MIC [8] [µg/mL] | Ki (human MAO-A) [nM] | Ki (human MAO-B) [nM] | MICs [9] [µg/mL] | Solubility ([10]; Ethanol) [µg/mL] | Solubility ([10]; Ethyl acetate) [µg/mL] | Solubility ([10]; Water (Fluka 95305), pH 8.9) [µg/mL] | Solubility ([10]; water, pH 8.7, water, thermodynamic from solid, Water (Fluka 95305), pH 8.7, read-out: Solubility) [µg/mL] | Solubility ([10]; water, pH 8.9, water, thermodynamic from solid, Water (Fluka 95305), pH 8.9, read-out: Solubility) [µg/mL] | relative stability of the polymorphic forms [11]
CC(=O)NC[C@H]1CN(c2ccc(N3CCC(C#N)CC3)c(F)c2)C(=O)O1 [Compound (Ia), (S)-N-{3-[4-(4-cyano-piperidin-1-yl)-3-fluoro-phenyl]-2-oxo-oxazolidin-5-ylmethyl}-acetamide] | 1 (≈ 2.77 µM) | 1 (≈ 2.77 µM) | 2 (≈ 5.55 µM) | 1 (≈ 2.77 µM) | 0.5 (≈ 1.39 µM) | 1 (≈ 2.77 µM) | 0.5 (≈ 1.39 µM) | 1 (≈ 2.77 µM) | 1 (≈ 2.77 µM) | 1050 | 2450 |  |  |  |  |  |  | 
CC(=O)NC[C@H]1CN(c2ccc(N3CCOCC3)c(F)c2)C(=O)O1 [Linezolid, N-[[(5S)-3-[3-fluoro-4-(4-morpholinyl)phenyl]-2-oxo-5-oxazolidinyl]methyl]acetamide, reference compound] | 1 (≈ 2.96 µM) | 1 (≈ 2.96 µM) | 16 to 32 (≈ 47.4 to 94.9 µM) | 1 (≈ 2.96 µM) | 1 (≈ 2.96 µM) | 0.5 (≈ 1.48 µM) | 1 (≈ 2.96 µM) | 2 (≈ 5.93 µM) | 2 (≈ 5.93 µM) | 6960 |  | 2 to 8 |  |  |  |  |  | 
CC(=O)NC[C@H]1CN(c2ccc(N3CCC(C#N)CC3)c(F)c2)C(=O)O1 [polymorphic form A, (S)-N-{3-[4-(4-cyano-piperidin-1-yl)-3-fluoro-phenyl]-2-oxo-oxazolidin-5-ylmethyl}-acetamide] |  |  |  |  |  |  |  |  |  |  |  |  | 6300 to 7300 | 11800 to 15400 | 390 (≈ 1080 µM) | 400 (≈ 1110 µM) |  | 
CC(=O)NC[C@H]1CN(c2ccc(N3CCC(C#N)CC3)c(F)c2)C(=O)O1 [polymorphic form B, (S)-N-{3-[4-(4-cyano-piperidin-1-yl)-3-fluoro-phenyl]-2-oxo-oxazolidin-5-ylmethyl}-acetamide] |  |  |  |  |  |  |  |  |  |  |  |  | 2600 (≈ 7210 µM) | 2900 (≈ 8050 µM) |  |  | 240 (≈ 666 µM) | the most stable one
